Reference: patent US5776903A, “Peptide derivatives usable as zinc endopeptidase 24-15 inhibitors” (Commissariat A l'Energie Atomique, priority 1995, dated 1998)

Experiments:
endopeptidase 24-15 = endopeptidase 24-15 (Rattus norvegicus, UniProt P24155); test: Inhibition of neurotensin degradation by purified endopeptidase 24-15 (HPLC), inhibition constant Ki; settings: for SELECTIVITY (ratio Ki24-16 /Ki24-15): selectivity relative to endopeptidase 24-16
Procedure: Incubation takes place for 1 hour at 37° C. of 2 nmole (20 μmole/l) of neurotensin, which is a known endopeptidase 24-15 substrate, with 7 μg of purified endopeptidase 24-15 in a final volume of 100 μl of tris-HCl buffer, 50 nM, pH 7.5, in the absence of an inhibitor (control) or in the presence of the peptide tested at concentrations from 10^-11 to 10^-7 mole/l. After 1 hour incubation analysis takes place of the solutions by HPLC. On the basis of this analysis the inhibition constant Ki of the tested peptide is determined.

endopeptidase 24-16 = endopeptidase 24-16 (Homo sapiens, UniProt Q9BYT8); test: Inhibition of neurotensin degradation by purified endopeptidase 24-16 (HPLC), inhibition constant Ki; format: biochemical; settings: neurotensin 20 μmole/l, 1 hour at 30° C., tris-HCl pH 7.5
Procedure: This example studies the inhibiting effect of the peptides of the invention with respect to endopeptidase 24-16.
To this end, incubation takes place for 1 hour at 30° C. of 2 nmole (20 μmole/l) of neurotensin, which is a known endopeptidase 24-16 substrate with 8 μg of endopeptidase 24-16 purified in a final volume of 100 μl of tris-HCl buffer, 50 mM, pH 7.5, in the absence of peptide (control) or in the presence of the peptide tested at concentrations from 10^-11 to 10^-7 mole/l. After 1 hour of incubation analysis takes place of the solutions by HPLC and the inhibition constant Ki of the tested peptide is determined.

Chain of endopeptidase 24-16 (Q9BYT8 38-704): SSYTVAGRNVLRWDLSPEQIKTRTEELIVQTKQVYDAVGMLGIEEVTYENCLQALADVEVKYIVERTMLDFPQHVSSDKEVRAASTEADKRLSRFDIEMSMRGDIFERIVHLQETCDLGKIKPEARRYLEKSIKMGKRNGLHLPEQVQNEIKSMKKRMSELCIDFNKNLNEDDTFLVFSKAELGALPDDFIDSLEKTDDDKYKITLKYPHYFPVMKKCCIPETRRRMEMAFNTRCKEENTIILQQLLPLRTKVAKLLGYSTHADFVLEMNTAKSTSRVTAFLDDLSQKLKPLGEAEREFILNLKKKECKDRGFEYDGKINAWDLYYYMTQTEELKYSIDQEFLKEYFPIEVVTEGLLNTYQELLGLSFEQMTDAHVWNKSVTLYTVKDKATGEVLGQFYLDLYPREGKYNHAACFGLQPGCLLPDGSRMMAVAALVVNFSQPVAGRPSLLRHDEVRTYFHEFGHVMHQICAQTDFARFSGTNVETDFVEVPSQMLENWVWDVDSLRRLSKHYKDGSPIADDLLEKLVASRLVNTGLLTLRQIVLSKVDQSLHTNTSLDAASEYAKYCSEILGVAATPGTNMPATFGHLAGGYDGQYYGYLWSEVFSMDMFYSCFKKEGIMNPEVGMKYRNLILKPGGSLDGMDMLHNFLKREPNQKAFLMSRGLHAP
Chain of endopeptidase 24-15 (P24155 whole entry): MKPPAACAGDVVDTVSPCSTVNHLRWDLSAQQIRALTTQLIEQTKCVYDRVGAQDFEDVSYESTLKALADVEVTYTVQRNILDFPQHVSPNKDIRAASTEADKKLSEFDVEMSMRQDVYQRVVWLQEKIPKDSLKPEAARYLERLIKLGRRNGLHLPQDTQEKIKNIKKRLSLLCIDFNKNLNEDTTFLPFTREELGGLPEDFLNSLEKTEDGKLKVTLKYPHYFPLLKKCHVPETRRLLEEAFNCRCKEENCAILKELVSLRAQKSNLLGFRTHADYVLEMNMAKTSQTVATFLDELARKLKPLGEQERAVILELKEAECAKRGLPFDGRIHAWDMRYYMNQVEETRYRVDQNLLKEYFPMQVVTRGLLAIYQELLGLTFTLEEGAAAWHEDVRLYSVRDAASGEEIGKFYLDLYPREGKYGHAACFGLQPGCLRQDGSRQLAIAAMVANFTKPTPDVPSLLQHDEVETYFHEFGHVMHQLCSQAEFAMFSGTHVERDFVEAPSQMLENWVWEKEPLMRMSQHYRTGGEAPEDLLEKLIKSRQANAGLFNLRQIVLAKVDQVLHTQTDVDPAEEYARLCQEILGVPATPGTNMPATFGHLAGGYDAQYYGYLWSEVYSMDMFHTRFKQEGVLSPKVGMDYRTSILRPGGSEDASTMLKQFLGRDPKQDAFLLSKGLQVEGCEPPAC

CSCC[C@H](NC(=O)[C@H](CCCNC(=N)N)NC(=O)CCP(=O)(O)C(Cc1ccccc1)NC(=O)OCc1ccccc1)C(=O)O (mixture of isomers) [compound 1, Z--Phe .PSI. (PO2 CH2)Gly--Arg--Met]
Ki (endopeptidase 24-15): 0.35 nM | SELECTIVITY (ratio Ki24-16 /Ki24-15) (endopeptidase 24-15): 377 | Ki (endopeptidase 24-16): 132 nM

CCCC[C@H](NC(=O)[C@H](CCCNC(=N)N)NC(=O)CCP(=O)(O)C(Cc1ccccc1)NC(=O)OCc1ccccc1)C(=O)O (mixture of isomers) [compound 2, Z--Phe .PSI. (PO2 CH2)Gly--Arg--Nle]
Ki (endopeptidase 24-15): 1.6 nM | SELECTIVITY (ratio Ki24-16 /Ki24-15) (endopeptidase 24-15): 135 | Ki (endopeptidase 24-16): 213 nM

C[C@H](NC(=O)[C@H](CCCNC(=N)N)NC(=O)CCP(=O)(O)C(Cc1ccccc1)NC(=O)OCc1ccccc1)C(=O)O (mixture of isomers) [compound 3, Z--Phe .PSI. (PO2 CH2)Gly--Arg--Ala]
Ki (endopeptidase 24-15): 2.2 nM | SELECTIVITY (ratio Ki24-16 /Ki24-15) (endopeptidase 24-15): 91 | Ki (endopeptidase 24-16): 201 nM

N=C(N)NCCC[C@H](NC(=O)CCP(=O)(O)C(Cc1ccccc1)NC(=O)OCc1ccccc1)C(=O)N[C@@H](Cc1ccccc1)C(=O)O (mixture of isomers) [compound 4, Z--Phe .PSI. (PO2 CH2)Gly--Arg--Phe]
Ki (endopeptidase 24-15): 2.7 nM | SELECTIVITY (ratio Ki24-16 /Ki24-15) (endopeptidase 24-15): 409 | Ki (endopeptidase 24-16): 1100 nM

N=C(N)NCCC[C@H](NC(=O)CCP(=O)(O)C(Cc1ccccc1)NC(=O)OCc1ccccc1)C(=O)N[C@@H](Cc1ccc(O)cc1)C(=O)O (mixture of isomers) [compound 5, Z--Phe .PSI. (PO2 CH2)Gly--Arg--Tyr]
Ki (endopeptidase 24-15): 3.6 nM | SELECTIVITY (ratio Ki24-16 /Ki24-15) (endopeptidase 24-15): 165 | Ki (endopeptidase 24-16): 596 nM

CC(C)C[C@H](NC(=O)[C@H](CCCNC(=N)N)NC(=O)CCP(=O)(O)C(Cc1ccccc1)NC(=O)OCc1ccccc1)C(=O)O (mixture of isomers) [compound 6, Z--Phe .PSI. (PO2 CH2)Gly--Arg--Leu]
Ki (endopeptidase 24-15): 5 nM | SELECTIVITY (ratio Ki24-16 /Ki24-15) (endopeptidase 24-15): 169 | Ki (endopeptidase 24-16): 846 nM

N=C(N)NCCC[C@H](NC(=O)CCP(=O)(O)C(Cc1ccccc1)NC(=O)OCc1ccccc1)C(=O)N[C@@H](CCC(N)=O)C(=O)O (mixture of isomers) [compound 7, Z--Phe .PSI. (PO2 CH2)Gly--Arg--Gln]
Ki (endopeptidase 24-15): 6.1 nM | SELECTIVITY (ratio Ki24-16 /Ki24-15) (endopeptidase 24-15): 113 | Ki (endopeptidase 24-16): 690 nM

CC(C)[C@H](NC(=O)[C@H](CCCNC(=N)N)NC(=O)CCP(=O)(O)C(Cc1ccccc1)NC(=O)OCc1ccccc1)C(=O)O (mixture of isomers) [compound 8, Z--Phe .PSI. (PO2 CH2)Gly--Arg--Val]
Ki (endopeptidase 24-15): 9.3 nM | SELECTIVITY (ratio Ki24-16 /Ki24-15) (endopeptidase 24-15): 121 | Ki (endopeptidase 24-16): 1130 nM

CC[C@H](C)[C@H](NC(=O)[C@H](CCCNC(=N)N)NC(=O)CCP(=O)(O)C(Cc1ccccc1)NC(=O)OCc1ccccc1)C(=O)O (mixture of isomers) [compound 9, Z--Phe .PSI. (PO2 CH2)Gly--Arg--Ile]
Ki (endopeptidase 24-15): 9.6 nM | SELECTIVITY (ratio Ki24-16 /Ki24-15) (endopeptidase 24-15): 61 | Ki (endopeptidase 24-16): 589 nM

N=C(N)NCCC[C@H](NC(=O)CCP(=O)(O)C(Cc1ccccc1)NC(=O)OCc1ccccc1)C(=O)N[C@@H](Cc1c[nH]c2ccccc12)C(=O)O (mixture of isomers) [compound 10, Z--Phe .PSI. (PO2 CH2)Gly--Arg--Trp]
Ki (endopeptidase 24-15): 13.1 nM | SELECTIVITY (ratio Ki24-16 /Ki24-15) (endopeptidase 24-15): 203 | Ki (endopeptidase 24-16): 2660 nM

N=C(N)NCCC[C@H](NC(=O)CCP(=O)(O)C(Cc1ccccc1)NC(=O)OCc1ccccc1)C(=O)NCC(=O)O (mixture of isomers) [compound 11, Z--Phe .PSI. (PO2 CH2)Gly--Arg--Gly]
Ki (endopeptidase 24-15): 13.8 nM | SELECTIVITY (ratio Ki24-16 /Ki24-15) (endopeptidase 24-15): 120 | Ki (endopeptidase 24-16): 1660 nM

N=C(N)NCCC[C@H](NC(=O)[C@H](CCCNC(=N)N)NC(=O)CCP(=O)(O)C(Cc1ccccc1)NC(=O)OCc1ccccc1)C(=O)O (mixture of isomers) [compound 12, Z--Phe .PSI. (PO2 CH2)Gly--Arg--Arg]
Ki (endopeptidase 24-15): 14 nM | SELECTIVITY (ratio Ki24-16 /Ki24-15) (endopeptidase 24-15): 145 | Ki (endopeptidase 24-16): 2040 nM

N=C(N)NCCC[C@H](NC(=O)CCP(=O)(O)C(Cc1ccccc1)NC(=O)OCc1ccccc1)C(=O)N[C@@H](CC(N)=O)C(=O)O (mixture of isomers) [compound 13, Z--Phe .PSI. (PO2 CH2)Gly--Arg--Asn]
Ki (endopeptidase 24-15): 19.5 nM | SELECTIVITY (ratio Ki24-16 /Ki24-15) (endopeptidase 24-15): 71 | Ki (endopeptidase 24-16): 1380 nM

N=C(N)NCCC[C@H](NC(=O)CCP(=O)(O)C(Cc1ccccc1)NC(=O)OCc1ccccc1)C(=O)N[C@@H](Cc1c[nH]cn1)C(=O)O (mixture of isomers) [compound 14, Z--Phe .PSI. (PO2 CH2)Gly--Arg--His]
Ki (endopeptidase 24-15): 23.2 nM | SELECTIVITY (ratio Ki24-16 /Ki24-15) (endopeptidase 24-15): 129 | Ki (endopeptidase 24-16): 3010 nM

C[C@@H](O)[C@H](NC(=O)[C@H](CCCNC(=N)N)NC(=O)CCP(=O)(O)C(Cc1ccccc1)NC(=O)OCc1ccccc1)C(=O)O (mixture of isomers) [compound 17, Z--Phe .PSI. (PO2 CH2)Gly--Arg--Thr]
Ki (endopeptidase 24-15): 35.2 nM | SELECTIVITY (ratio Ki24-16 /Ki24-15) (endopeptidase 24-15): 103 | Ki (endopeptidase 24-16): 3640 nM

N=C(N)NCCC[C@H](NC(=O)CCP(=O)(O)C(Cc1ccccc1)NC(=O)OCc1ccccc1)C(=O)N[C@@H](CCCCN)C(=O)O (mixture of isomers) [compound 18, Z--Phe .PSI. (PO2 CH2)Gly--Arg--Lys]
Ki (endopeptidase 24-15): 138 nM | SELECTIVITY (ratio Ki24-16 /Ki24-15) (endopeptidase 24-15): 186 | Ki (endopeptidase 24-16): 25700 nM

N=C(N)NCCC[C@H](NC(=O)CCP(=O)(O)C(Cc1ccccc1)NC(=O)OCc1ccccc1)C(=O)N[C@@H](CCC(=O)O)C(=O)O (mixture of isomers) [compound 19, Z--Phe .PSI. (PO2 CH2)Gly--Arg--Glu]
Ki (endopeptidase 24-15): 163 nM | SELECTIVITY (ratio Ki24-16 /Ki24-15) (endopeptidase 24-15): 50 | Ki (endopeptidase 24-16): 8150 nM

N=C(N)NCCC[C@H](NC(=O)CCP(=O)(O)C(Cc1ccccc1)NC(=O)OCc1ccccc1)C(=O)N[C@@H](CC(=O)O)C(=O)O (mixture of isomers) [compound 20, Z--Phe .PSI. (PO2 CH2)Gly--Arg--Asp]
Ki (endopeptidase 24-15): 352 nM | SELECTIVITY (ratio Ki24-16 /Ki24-15) (endopeptidase 24-15): 58 | Ki (endopeptidase 24-16): 20400 nM

N=C(N)NCCC[C@H](NC(=O)CCP(=O)(O)C(Cc1ccccc1)NC(=O)OCc1ccccc1)C(=O)N1CCC[C@H]1C(=O)O (mixture of isomers) [compound 21, Z--Phe .PSI. (PO2 CH2)Gly--Arg--Pro]
Ki (endopeptidase 24-15): 3520 nM | SELECTIVITY (ratio Ki24-16 /Ki24-15) (endopeptidase 24-15): 10 | Ki (endopeptidase 24-16): 36700 nM

CSCC[C@H](NC(=O)[C@H](CCCCN)NC(=O)C(C)CP(=O)(O)C(Cc1ccccc1)NC(=O)OCc1ccccc1)C(=O)O (mixture of isomers) [compound 22, Z--Phe .PSI. (PO2 CH2)Ala--Lys--Met]
Ki (endopeptidase 24-15): 0.115 nM | SELECTIVITY (ratio Ki24-16 /Ki24-15) (endopeptidase 24-15): 1957 | Ki (endopeptidase 24-16): 225 nM

CC(CP(=O)(O)C(Cc1ccccc1)NC(=O)OCc1ccccc1)C(=O)N[C@@H](CCCCN)C(=O)N[C@@H](CCC(N)=O)C(=O)O (mixture of isomers) [compound 28, Z--Phe .PSI. (PO2 CH2)Ala--Lys--Gln]
Ki (endopeptidase 24-15): 2.18 nM

CC(CP(=O)(O)C(Cc1ccccc1)NC(=O)OCc1ccccc1)C(=O)N[C@@H](CCCCN)C(=O)N[C@@H](Cc1ccc(O)cc1)C(=O)O (mixture of isomers) [compound 29, Z--Phe .PSI. (PO2 CH2)Ala--Lys--Tyr]
Ki (endopeptidase 24-15): 2.3 nM

CC(CP(=O)(O)C(Cc1ccccc1)NC(=O)OCc1ccccc1)C(=O)N[C@@H](CCCCN)C(=O)N[C@H](C(=O)O)C(C)C (mixture of isomers) [compound 30, Z--Phe .PSI. (PO2 CH2)Ala--Lys--Val]
Ki (endopeptidase 24-15): 2.6 nM

CC(CP(=O)(O)C(Cc1ccccc1)NC(=O)OCc1ccccc1)C(=O)N[C@@H](CCCCN)C(=O)N[C@@H](CCCNC(=N)N)C(=O)O (mixture of isomers) [compound 31, Z--Phe .PSI. (PO2 CH2)Ala--Lys--Arg]
Ki (endopeptidase 24-15): 3.17 nM

CC(CP(=O)(O)C(Cc1ccccc1)NC(=O)OCc1ccccc1)C(=O)N[C@@H](CCCCN)C(=O)N[C@@H](CC(N)=O)C(=O)O (mixture of isomers) [compound 32, Z--Phe .PSI. (PO2 CH2)Ala--Lys--Asn]
Ki (endopeptidase 24-15): 4.9 nM

CC(CP(=O)(O)C(Cc1ccccc1)NC(=O)OCc1ccccc1)C(=O)N[C@@H](CCCCN)C(=O)NCC(=O)O (mixture of isomers) [compound 33, Z--Phe .PSI. (PO2 CH2)Ala--Lys--Gly]
Ki (endopeptidase 24-15): 5.1 nM

CC(CP(=O)(O)C(Cc1ccccc1)NC(=O)OCc1ccccc1)C(=O)N[C@@H](CCCCN)C(=O)N[C@@H](Cc1c[nH]c2ccccc12)C(=O)O (mixture of isomers) [compound 34, Z--Phe .PSI. (PO2 CH2)Ala--Lys--Trp]
Ki (endopeptidase 24-15): 5.78 nM

CC(CP(=O)(O)C(Cc1ccccc1)NC(=O)OCc1ccccc1)C(=O)N[C@@H](CCCCN)C(=O)N[C@@H](Cc1c[nH]cn1)C(=O)O (mixture of isomers) [compound 35, Z--Phe .PSI. (PO2 CH2)Ala--Lys--His]
Ki (endopeptidase 24-15): 7.13 nM

CC(CP(=O)(O)C(Cc1ccccc1)NC(=O)OCc1ccccc1)C(=O)N[C@@H](CCCCN)C(=O)N[C@H](C(=O)O)[C@@H](C)O (mixture of isomers) [compound 36, Z--Phe .PSI. (PO2 CH2)Ala--Lys--Thr]
Ki (endopeptidase 24-15): 10.1 nM

CC(CP(=O)(O)C(Cc1ccccc1)NC(=O)OCc1ccccc1)C(=O)N[C@@H](CCCCN)C(=O)N[C@@H](CO)C(=O)O (mixture of isomers) [compound 37, Z--Phe .PSI. (PO2 CH2)Ala--Lys--Ser]
Ki (endopeptidase 24-15): 11.9 nM

CC(CP(=O)(O)C(Cc1ccccc1)NC(=O)OCc1ccccc1)C(=O)N[C@@H](CCCCN)C(=O)N[C@@H](CCCCN)C(=O)O (mixture of isomers) [compound 38, Z--Phe .PSI. (PO2 CH2)ASla--Lys--Lys]
Ki (endopeptidase 24-15): 26.9 nM

CC(CP(=O)(O)C(Cc1ccccc1)NC(=O)OCc1ccccc1)C(=O)N[C@@H](CCCCN)C(=O)N[C@@H](CCC(=O)O)C(=O)O (mixture of isomers) [compound 39, Z--Phe .PSI. (PO2 CH2)Ala--Lys--Glu]
Ki (endopeptidase 24-15): 53.5 nM

CC(CP(=O)(O)C(Cc1ccccc1)NC(=O)OCc1ccccc1)C(=O)N[C@@H](CCCCN)C(=O)N[C@@H](CC(=O)O)C(=O)O (mixture of isomers) [compound 40, Z--Phe .PSI. (PO2 CH2)Ala--Lys--Asp]
Ki (endopeptidase 24-15): 109 nM

CC(CP(=O)(O)C(Cc1ccccc1)NC(=O)OCc1ccccc1)C(=O)N[C@@H](CCCCN)C(=O)N1CCC[C@H]1C(=O)O (mixture of isomers) [compound 41, Z--Phe .PSI. (PO2 CH2)Ala--Lys--Pro]
Ki (endopeptidase 24-15): 1030 nM
